US20260022142A1, “MACROCYCLIC IMMUNOMODULATORS” (Bristol-Myers Squibb Company, priority 2022, published 2026)
Numbered stars: 1 amine (or outer) side, 2 acyl side, 3 side chain; on linkers, the order of the positions; unused ones are H or OH. Bridge positions count the residues as written; N and C are the ends. Square brackets hold non-standard residues; d marks the D form. Peptide text beside a SMILES is read from it. * marks the point of attachment. ξ: configuration not given here. Phe(3-CF3) = N[C@@H](Cc1cccc(C(F)(F)F)c1)C(=O)O; Phe(4-COOH) = N[C@@H](Cc1ccc(C(=O)O)cc1)C(=O)O; Tyr(3-Cl) = N[C@@H](Cc1ccc(O)c(Cl)c1)C(=O)O; Bip = N[C@@H](Cc1ccc(-c2ccccc2)cc1)C(=O)O; Phe(4-CN) = N#Cc1ccc(C[C@H](N)C(=O)O)cc1; NH(CH2)14COOH = O=C(O)CCCCCCCCCCCCCCN*; Phe(3-Me) = Cc1cccc(C[C@H](N)C(=O)O)c1; βAsp = O=C(O)[C@H](CC(=O)[*:2])N[*:1]; NH(CH2)12COOH = O=C(O)CCCCCCCCCCCCN*; Val(3-OH) = CC(C)(O)[C@H](N)C(=O)O; hArg = N=C(N)NCCCC[C@H](N)C(=O)O; 4Pal = N[C@@H](Cc1ccncc1)C(=O)O; Cha = N[C@@H](CC1CCCCC1)C(=O)O; Cit = NC(=O)NCCC[C@H](N)C(=O)O; Thr(3ξ) = CC(O)[C@H](N)C(=O)O; Carboxymethyl = O=C(O)C*; Orn = NCCC[C@H](N)C(=O)O; Aun = NCCCCCCCCCCC(=O)O; Dab = NCC[C@H](N)C(=O)O; Dap = NC[C@H](N)C(=O)O; AEEA = NCCOCCOCC(=O)O

Target: T1, PD-1/PD-L1 interaction (PE-labeled human PD-L1-Ig binding to Jurkat cell line over-expressing human PD-1) (Homo sapiens, UniProt Q15116)
T1 construct: expressed in transfected cells; host or cells: Jurkat
T1 sequence (Q15116 25-288): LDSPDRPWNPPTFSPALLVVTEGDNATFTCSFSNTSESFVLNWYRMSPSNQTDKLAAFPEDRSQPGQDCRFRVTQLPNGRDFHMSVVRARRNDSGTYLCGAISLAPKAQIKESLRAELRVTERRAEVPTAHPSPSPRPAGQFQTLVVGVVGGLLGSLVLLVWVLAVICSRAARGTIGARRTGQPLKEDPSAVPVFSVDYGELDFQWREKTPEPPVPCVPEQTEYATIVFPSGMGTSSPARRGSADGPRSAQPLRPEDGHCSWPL
Assay: Jurkat-PD-1 Cell Binding High-Content Screening Assay (CBA)
Format: cell-based
Conditions: Jurkat cell line over-expressing human PD-1; PE-labeled PD-L1-Ig 20 nM final; read-out: Jurkat hPD1-PDL1 IC50
Procedure, shortened: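 Read-out is high-content imaging of cell-bound phycoerythrin-tagged PD-L1-Ig on fixed, Hoechst-counterstained Jurkat cells that over-express human PD-1. Compound exposure lasts 2 h at 37° C before the labeled ligand (20 nM final) is added for a further hour.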

SMILES	IC50 [nM]
Cc1cccc(C[C@@H]2NC(=O)[C@H](CC(=O)O)NC(=O)[C@H](Cc3ccc(OCC(=O)O)cc3)NC(=O)[C@H](C)NC(=O)CSC[C@@H](C(=O)N[C@@H](CCN)C(=O)NCCOCCOCC(=O)NCCOCCOCC(=O)NCCCCCCCCCCCCCCC(=O)O)NC(=O)[C@H](CO)NC(=O)[C@H](C(C)(C)O)NC(=O)[C@H](CC3CCCCC3)NC(=O)[C@H](CCN)NC(=O)[C@@H](CC(C)C)NC(=O)[C@H](CCCN)NC(=O)[C@H](Cc3ccc(C(=O)O)cc3)NC(=O)[C@H](Cc3ccc(-c4ccccc4)cc3)NC(=O)[C@H](Cc3ccc(C(=O)O)cc3)NC2=O)c1 [Compound 3853] ({CH2CO}-AY(Carboxymethyl)D[Phe(3-Me)][Phe(4-COOH)][Bip][Phe(4-COOH)][Orn][dL][Dab][Cha][Val(3-OH)]SC[Dab][AEEA][AEEA]-{NH(CH2)14COOH}; thioether N-14)	104
Cc1cccc(C[C@@H]2NC(=O)[C@H](CC(=O)O)NC(=O)[C@H](Cc3ccc(OCC(=O)O)cc3)NC(=O)[C@H](CN)NC(=O)CSC[C@@H](C(=O)N[C@@H](CCN)C(=O)NCCOCCOCC(=O)NCCCCCCCCCCC(=O)O)NC(=O)[C@H](CCCN)NC(=O)[C@H](C(C)C)NC(=O)[C@H](CC3CCCCC3)NC(=O)[C@H](CCN)NC(=O)[C@@H](CC(C)C)NC(=O)[C@H](CCCN)NC(=O)[C@H](Cc3ccc(O)cc3)NC(=O)[C@H](Cc3ccc(-c4ccccc4)cc3)NC(=O)[C@H](Cc3ccc(O)c(Cl)c3)NC2=O)c1 [Compound 2075] ({CH2CO}-[Dap]Y(Carboxymethyl)D[Phe(3-Me)][Tyr(3-Cl)][Bip]Y[Orn][dL][Dab][Cha]V[Orn]C[Dab][AEEA][Aun]-OH; thioether N-14)	14.3
Cc1cccc(C[C@@H]2NC(=O)[C@H](CC(=O)O)NC(=O)[C@H](Cc3ccc(OCC(=O)O)cc3)NC(=O)[C@H](CCN)NC(=O)CSC[C@@H](C(=O)N[C@@H](CCN)C(=O)NCCOCCOCC(=O)NCCOCCOCC(=O)NCCCCCCCCCCC(=O)O)NC(=O)[C@H](CCC(=O)O)NC(=O)[C@H](C(C)(C)O)NC(=O)[C@H](CC3CCCCC3)NC(=O)[C@H](CCN)NC(=O)[C@@H](CC(C)C)NC(=O)[C@H](CCCN)NC(=O)[C@H](Cc3ccc(OCC(=O)O)cc3)NC(=O)[C@H](Cc3ccc(-c4ccccc4)cc3)NC(=O)[C@H](Cc3ccc(OCC(=O)O)cc3)NC2=O)c1 [Compound 3753] ({CH2CO}-[Dab]Y(Carboxymethyl)D[Phe(3-Me)]Y(Carboxymethyl)[Bip]Y(Carboxymethyl)[Orn][dL][Dab][Cha][Val(3-OH)]EC[Dab][AEEA][AEEA][Aun]-OH; thioether N-14)	6
CC(C)C[C@@H]1NC(=O)CSC[C@@H](C(=O)N[C@@H](CCN)C(=O)NCCOCCOCC(=O)N[C@@H](CC(=O)NCCOCCOCC(=O)NCCCCCCCCCCCCC(=O)O)C(=O)O)NC(=O)[C@H](CO)NC(=O)[C@H](C(C)(C)O)NC(=O)[C@H](CC2CCCCC2)NC(=O)[C@H](CCN)NC(=O)[C@@H](CC(C)C)NC(=O)[C@H](CCCN)NC(=O)[C@H](Cc2ccc(C(=O)O)cc2)NC(=O)[C@H](Cc2ccc(-c3ccccc3)cc2)NC(=O)[C@H](Cc2ccc(C(=O)O)cc2)NC(=O)[C@H](Cc2cccc(C(F)(F)F)c2)NC(=O)[C@H](CC(=O)O)NC(=O)[C@H](Cc2ccc(OCC(=O)O)cc2)NC1=O [Compound 2937] ({CH2CO}-LY(Carboxymethyl)D[Phe(3-CF3)][Phe(4-COOH)][Bip][Phe(4-COOH)][Orn][dL][Dab][Cha][Val(3-OH)]SC[Dab][AEEA][βAsp][AEEA]-{NH(CH2)12COOH}; thioether N-14)	11.7
CC(=O)NCCCC[C@@H]1NC(=O)[C@H](C(C)C)NC(=O)[C@H](CC2CCCCC2)NC(=O)[C@H](CCN)NC(=O)[C@@H](CC(C)C)NC(=O)[C@H](CCCN)NC(=O)[C@H](C(C)C)NC(=O)[C@H](Cc2ccc(-c3ccccc3)cc2)NC(=O)[C@H](C(C)C)NC(=O)[C@H](Cc2c[nH]c3ccccc23)NC(=O)[C@H](CC(=O)O)NC(=O)[C@H](Cc2ccc(OCC(=O)O)cc2)NC(=O)[C@H](CCCNC(=N)N)NC(=O)CSC[C@@H](C(=O)NCCOCCOCC(=O)NCCCCCCCCCCC(=O)O)NC1=O [Compound 3341] ({CH2CO}-RY(Carboxymethyl)DWV[Bip]V[Orn][dL][Dab][Cha]VK(Ac)C[AEEA][Aun]-OH; thioether N-14)	7.4
Cc1cccc(C[C@@H]2NC(=O)[C@H](CC(=O)O)NC(=O)[C@H](Cc3ccc(OCC(=O)O)cc3)NC(=O)[C@H](CN)NC(=O)CSC[C@@H](C(=O)N[C@@H](CCN)C(=O)NCCCCCCCCCCC(=O)O)NC(=O)[C@H](Cc3ccncc3)NC(=O)[C@H](C(C)C)NC(=O)[C@H](CC(C)C)NC(=O)[C@H](CCN)NC(=O)[C@@H](CC(C)C)NC(=O)[C@H](CCCN)NC(=O)[C@H](Cc3ccc(O)cc3)NC(=O)[C@H](Cc3ccc(-c4ccccc4)cc3)NC(=O)[C@H](C(C)C)NC2=O)c1 [Compound 2767] ({CH2CO}-[Dap]Y(Carboxymethyl)D[Phe(3-Me)]V[Bip]Y[Orn][dL][Dab]LV[4Pal]C[Dab][Aun]-OH; thioether N-14)	42.7
Cc1cccc(C[C@@H]2NC(=O)[C@H](CC(=O)O)NC(=O)[C@H](Cc3ccc(OCC(=O)O)cc3)NC(=O)[C@H](CN)NC(=O)CSC[C@@H](C(=O)N[C@@H](CCN)C(=O)NCCOCCOCC(=O)NCCCCCCCCCCC(=O)O)NC(=O)[C@H](CCCN)NC(=O)[C@H](C(C)C)NC(=O)[C@H](CC3CCCCC3)NC(=O)[C@H](CCN)NC(=O)[C@@H](CC(C)C)NC(=O)[C@H](CCCN)NC(=O)[C@H](Cc3ccc(O)cc3)NC(=O)[C@H](Cc3ccc(-c4ccccc4)cc3)NC(=O)[C@H](Cc3ccc(C#N)cc3)NC2=O)c1 [Compound 2071] ({CH2CO}-[Dap]Y(Carboxymethyl)D[Phe(3-Me)][Phe(4-CN)][Bip]Y[Orn][dL][Dab][Cha]V[Orn]C[Dab][AEEA][Aun]-OH; thioether N-14)	4.8

Continued, values first:

IC50 [nM]	SMILES
6.8	Cc1cccc(C[C@@H]2NC(=O)[C@H](CC(=O)O)NC(=O)[C@H](Cc3ccc(OCC(=O)O)cc3)NC(=O)[C@H](CCCNC(=N)N)NC(=O)CSC[C@@H](C(=O)N[C@@H](CCN)C(=O)NCCCCCCCCCCC(=O)O)NC(=O)[C@H](CCCN)NC(=O)[C@H](C(C)C)NC(=O)[C@H](CC3CCCCC3)NC(=O)[C@H](CCN)NC(=O)[C@@H](CC(C)C)NC(=O)[C@H](CCCN)NC(=O)[C@H](CCC(N)=O)NC(=O)[C@H](Cc3ccc(-c4ccccc4)cc3)NC(=O)[C@H](C(C)C)NC2=O)c1 [Compound 3356] ({CH2CO}-RY(Carboxymethyl)D[Phe(3-Me)]V[Bip]Q[Orn][dL][Dab][Cha]V[Orn]C[Dab][Aun]-OH; thioether N-14)
6.1	Cc1cccc(C[C@@H]2NC(=O)[C@H](CC(=O)O)NC(=O)[C@H](Cc3ccc(OCC(=O)O)cc3)NC(=O)[C@H](CN)NC(=O)CSC[C@@H](C(=O)NCCOCCOCC(=O)N[C@@H](CC(=O)O)C(=O)NCCCCCCCCCCC(=O)O)NC(=O)[C@H]([C@@H](C)O)NC(=O)[C@H](C(C)C)NC(=O)[C@H](CC3CCCCC3)NC(=O)[C@H](CCN)NC(=O)[C@@H](CC(C)C)NC(=O)[C@H](CCCN)NC(=O)[C@H](CCCNC(N)=O)NC(=O)[C@H](Cc3ccc(-c4ccccc4)cc3)NC(=O)[C@H](C(C)C)NC2=O)c1 [Compound 1032] ({CH2CO}-[Dap]Y(Carboxymethyl)D[Phe(3-Me)]V[Bip][Cit][Orn][dL][Dab][Cha]VTC[AEEA]D[Aun]-OH; thioether N-14)
10.7	Cc1cccc(C[C@@H]2NC(=O)[C@H](CC(=O)O)NC(=O)[C@H](Cc3ccc(OCC(=O)O)cc3)NC(=O)[C@H](CN)NC(=O)CSC[C@@H](C(=O)NCCOCCOCC(=O)N[C@@H](CCN)C(=O)NCCCCCCCCCCC(=O)O)NC(=O)[C@H](CCCNC(=N)N)NC(=O)[C@H](C(C)C)NC(=O)[C@H](CC3CCCCC3)NC(=O)[C@H](CCN)NC(=O)[C@@H](CC(C)C)NC(=O)[C@H](CCCN)NC(=O)[C@H](C(C)C)NC(=O)[C@H](Cc3ccc(-c4ccccc4)cc3)NC(=O)[C@H](C(C)C)NC2=O)c1 [Compound 2544] ({CH2CO}-[Dap]Y(Carboxymethyl)D[Phe(3-Me)]V[Bip]V[Orn][dL][Dab][Cha]VRC[AEEA][Dab][Aun]-OH; thioether N-14)
8	Cc1cccc(C[C@@H]2NC(=O)[C@H](CC(=O)O)NC(=O)[C@H](Cc3ccc(OCC(=O)O)cc3)NC(=O)[C@H](CCCCNC(=N)N)NC(=O)CSC[C@@H](C(=O)N[C@@H](CCCN)C(=O)N[C@@H](CO)C(=O)NCCCCCCCCCCC(=O)O)NC(=O)[C@H](C(C)O)NC(=O)[C@H](C(C)C)NC(=O)[C@H](CC3CCCCC3)NC(=O)[C@H](CCN)NC(=O)[C@@H](CC(C)C)NC(=O)[C@H](CCCN)NC(=O)[C@H](C(C)C)NC(=O)[C@H](Cc3ccc(-c4ccccc4)cc3)NC(=O)[C@H](C(C)C)NC2=O)c1 (stereo partly drawn) [Compound 3268] ({CH2CO}-[hArg]Y(Carboxymethyl)D[Phe(3-Me)]V[Bip]V[Orn][dL][Dab][Cha]V[Thr(3ξ)]C[Orn]S[Aun]-OH; thioether N-14)
7.6	Cc1cccc(C[C@@H]2NC(=O)[C@H](CC(=O)O)NC(=O)[C@H](Cc3ccc(OCC(=O)O)cc3)NC(=O)[C@H](C(C)O)NC(=O)CSC[C@@H](C(=O)N[C@H](CC(N)=O)C(=O)NCCCCCCCCCCC(=O)O)NC(=O)[C@H](C(C)O)NC(=O)[C@H](C(C)C)NC(=O)[C@H](CC3CCCCC3)NC(=O)[C@H](CCN)NC(=O)[C@@H](CC(C)C)NC(=O)[C@H](CCCN)NC(=O)[C@H](CCC(N)=O)NC(=O)[C@H](Cc3ccc(-c4ccccc4)cc3)NC(=O)[C@H](C(C)C)NC2=O)c1 (stereo partly drawn) [Compound 3430] ({CH2CO}-[Thr(3ξ)]Y(Carboxymethyl)D[Phe(3-Me)]V[Bip]Q[Orn][dL][Dab][Cha]V[Thr(3ξ)]C[dN][Aun]-OH; thioether N-14)
